Assay results taken from patent US20240050385A1, “METHODS OF TREATING LEPTOMENINGEAL METASTASIS” (MEMORIAL SLOAN-KETTERING CANCER CENTER, priority 2020, published 2024).
Entries after “also recorded” stand apart in the source; their conditions may differ. Where a name gives a salt, the structure may show the parent alone.

Tests used:
LLC-LeptoM model = experiment: Immune cell composition in CSF of LLC-LeptoM model (flow cytometry); format: in vivo, mouse; settings: day 10, in words
Excerpt: (§1) FIG. 16A-16L. Iron chelator treatment reduces CSF iron. (A) Experimental scheme. Mice were inoculated with 2×10^3 cells intrathecally on day 0. Treatment with either vehicle, DFO, or D-pen was commenced on either day 1 or day 7 and continued every third day for a total of 7 doses. (B) Chelators delivered intrathecally. DFO, Deferoxamine. D-Pen, D-Penicillamine. (C-F) Intracellular iron (C and E) and viability (D and F) of PC9-LeptoM cells and MDA231-LeptoM cells after treatment with chelators in different concentrations (0 μM, 1 μM, 10 μM and 100 μM). n=3-4 per group in each of two independent experiments. * indicates p<0.05, ** indicates p<0.01, ***indicates p<0.001, **** indicates p<0.0001 (unpaired t test). Data represent mean±SEM. (G) Growth of PC9-LeptoM tumor after treatment indicated in (A). Left: in vivo BLI imaging in day 28 post-inoculation. n=8-10 per group in each of two independent experiments. Right: Representative BLI images. **** indicates p<0.0001. Data represent mean±SEM. (H) Kaplan-Meier survival curve from (C) and (E). p<0.0001. (I and J) Total iron concentration measured in CSF samples of mice with treatment of chelators in PC9-LeptoM Model (I) in MDA231-LeptoM model (J). NS=not significant, * indicates p<0.05, ** indicates p<0.01 (unpaired t test). Data represent mean±SEM. (K and L) Immune cell composition in CSF of LLC-LeptoM model with the treatment of vehicle, DFO, or D-pen at day 10. n=6 per group. NS=not significant, * indicates p<0.05, ** indicates p<0.01 (unpaired t test). Data represent mean±SEM.
Flow cytometry analysis and sorting. For cytometric bead assay, CSF from control mice or mice bearing LLC LeptoM cells was collected on day 14 as described above. Levels of cytokines were measured using LEGENDplex Mouse Inflammation Panel (13-plex; 740446, Biolegend) as recommended by manufacturer in technical duplicates. Data was processed using LEGENDPlex Software (Biolegend). For flow cytometric analysis of CSF and meningeal cells, mice were transcardially perfused though left ventricle with saline using standard procedures (16). Then, CSF was collected by cisternal tap as described above. Next, cranial vault was removed, brain was collected and basilar meninges were washed with PBS. Surface of the brain and ventricular spaces were washed with PBS. CSF, cavity and brain washouts were pooled and processed for staining. For analysis of peripheral leukocytes, blood was collected from deeply anesthesized mice using cardiac puncture. Spleen was collected from perfused animals, minced, and mechanically dissociated using GentleMACS (Miltenyi Biotec). […] Phagocytic activity and respiratory burst were analyzed using E. coli Phagocytosis Assay Kit (FITC conjugate, Cayman Chemicals, 601370) and CellRox Green Flow Cytometry (Thermo Fisher, C10492), as recommended. […]

MDA231-LeptoM cells = experiment: In vivo leptomeningeal metastasis assay, MDA231-LeptoM model, intracisternal chelator treatment; parameters: species or system mouse; settings: for Median Survival: every 3 days; for [Fe]: total iron in CSF
Experimental: FIG. 15A-15G. LCN2 transports iron to support cancer cell growth. (A) Tumor growth in mice injected with MDA231-LeptoM cells expressing shCtl or shLCN2. Treatment with either vehicle or 5 mg/mL holo-transferrin (diferric [Tf]) began on day 1 and continued every third day for a total of 7 doses. Left: Histogram represents in vivo BLI imaging post-inoculation at day 21. n=8-10 per group in each of two independent experiments. Right: Representative BLI images. ** indicates p<0.01 (unpaired t test). Data represent mean±SEM. (B) Kaplan-Meier survival curve of LeptoM groups from (A). sh1+Veh vs sh1+Tf, p<0.0001. sh2+Veh vs sh2+Tf, p<0.0001. (C) Soluble iron concentration from macrophages collected from CSF in lipopolysaccharide (LPS)-stimulated, LeptoM or LeptoM-shLCN2 (sh1 and sh2) mouse model at day 14. Soluble iron was measured by mass spectroscopy. n=4 per group. ** indicates p<0.01, *** indicates p<0.001, **** indicates p<0.0001 (unpaired t test). Data represent mean±SEM. (D and E) Phagocytosis (D) and reactive oxygen species (ROS) generation (E) in CSF-derived macrophages by flow cytometric analysis after LeptoM (LLC model), shLCN2 LPS, or vehicle (Ctl) treatment. Phagocytosis detected by FITC-labeled E. coli. CellROX Green^+ cells represent percent of live cells with ROS. n=12-15 (Ctl), n=4-5 (LPS), n=11-18 (LeptoM), n=8 (shLCN2). NS=not significant, * indicates p<0.05, ** indicates p<0.01, **** indicates p<0.0001 (unpaired t test). Data represent mean±SEM in two independent experiments. (F) Tumor growth in MDA231-LeptoM model after chelator treatment: deferoxamine (DFO), D-penicillamine (D-Pen) on […] (early) or day 7 (late); see also FIG. 16. Left: in vivo BLI imaging in day 28 post-inoculation. n=8-10 per group in each of two independent experiments. Right: Representative BLI images. **** indicates p<0.0001. Data represent mean±SEM. (G) Kaplan-Meier survival curve of mice treated in (F). p<0.0001.
as §1
In vivo leptomeningeal metastasis assays. To model leptomeningeal metastasis with a known consistent disease burden, 2×10^3 PC9, 2×10^3 MDA231, or 1×10^3 LLC Parental or LeptoM cells suspended in 10 μl PBS were injected into the cisterna magna of anesthetized mice. This procedure was tolerated well by the mice. Tumor progression was monitored by bioluminescence imaging (BLI) every 7 days after tumor cell inoculation, and mouse condition was monitored daily. […]

| Structure (SMILES) | number (percentage) of CSF macrophages (LLC-LeptoM model) | numbers of neutrophils, T cells and monocytes in CSF (LLC-LeptoM model) | Median Survival (MDA231-LeptoM cells; MDA231-LeptoM model, intracisternal, start day not given) [days] | [Fe] (MDA231-LeptoM cells; MDA231-LeptoM model, start day not given) [µM] | iron concentration in the CSF compared to control mice (MDA231-LeptoM cells; MDA231-LeptoM model, day 28, in words) | [Fe] (MDA231-LeptoM cells; MDA231-LeptoM model, early (day 0)) [µM] | [Fe] (MDA231-LeptoM cells; MDA231-LeptoM model, late (day 7)) [µM] | Median Survival (MDA231-LeptoM cells; MDA231-LeptoM model, treatment begun early (day 0)) [days] | Median Survival (MDA231-LeptoM cells; MDA231-LeptoM model, treatment begun late (day 7)) [days] | dissemination of cancer cells over the spinal cord (MDA231-LeptoM cells; MDA231 mouse model, both early and late treatment groups, in words) | survival compared with vehicle control (MDA231-LeptoM cells; MDA231 mouse model, in words) |
| --- | --- | --- | --- | --- | --- | --- | --- | --- | --- | --- | --- |
| CC(C)(S)[C@@H](N)C(=O)O [D-Pen, D-penicillamine] | slightly reduced | not affected | 28 ± 7 | 39.44 ± 2.43 | – | – | – | – | – | – | – |
| CC(=O)N(O)CCCCCNC(=O)CCC(=O)N(O)CCCCCNC(=O)CCC(=O)N(O)CCCCCN [DFO, Deferoxamine mesylate] | slightly reduced; also recorded: only mildly reduced | not affected | – | – | profoundly decreased; also recorded: reduced CSF iron concentration to that of non-LeptoM control mice | 10.55 ± 1.31 | 9.19 ± 0.98 | 54.5 ± 5.5 | 38 ± 7 | impaired dissemination | conferred a survival benefit; also recorded: significant survival benefit |
